{"source": "paper PMC5438364", "about": "“A broad-spectrum bactericidal lipopeptide with anti-biofilm properties” (Scientific Reports, 2017)", "key": {"[1]": {"details": "under similar conditions; increased with increasing hydrophobicity; cited from earlier work"}, "bacteria": {"test_system": "bacteria", "details": "cited from earlier work", "source_text": "A variety of strategies were proposed to generate chemical mimics of AMPs to alleviate complications associated with peptide drugs, [31]. AMP-mimics may also be beneficial in helping to improve understanding the complex molecular basis for AMPs function(s) owing to their relative molecular/structural simplicity. Namely, while charge and hydrophobicity represent most critical factors influencing AMP properties, it is often challenging to identify the respective optimal proportions for controlling potency or selectivity. For instance, excess hydrophobicity might promote self-assembly in aque ..."}, "S. mutans": {"test_system": "S. mutans", "experiment": "microbe, parasite or virus in culture", "format": "cell-based, Streptococcus mutans", "protocol": "Staphylococci, Bacilli, Escherichia, Pseudomonas, Acinetobacter, Salmonella and Klebsiella species were grown in Luria Bertani broth (LB; 5 gr/l NaCl, 5 gr/l yeast extract, 10 gr/l tryptone). Enterococci and E. coli ML-35p were grown in Tryptic Soy Broth (TSB). Listeria and Streptococci were grown in Brain Heart Infusion (BHI). All bacteria were grown over-night at 37 °C with shaking. S. mutans 35668 plated on BHI agar for enumeration was grown for 48 hr. S. mutans UA159 was grown in 5% CO2 enriched atmosphere. Fusobacterium and Porphyromonas were grown in Wilkins-Chalgren growth medium and an anaerobic atmosphere.\nMinimal inhibitory concentration (MIC) was determined using the microdilution assay. Mid-log-phase bacteria at 5 × 10^5 CFU/ml were incubated in a 96-well plate with serial two-fold dilutions of the tested compound for 18–24 hr at 37 °C (final volume of 200 µl). O.D. at 620 nm was measured (Synergy HT, BioTek Instruments, Winooski, VT, USA), and the MIC was determined as the lowest concentration for which no increase in O.D. was detected."}, "E. coli": {"test_system": "E. coli", "details": "microdilution; cited from earlier work", "source_text": "Table 2 Modulating biophysical properties of a core sequence by conjugating an N-terminal acyl. | column: MIC^c (µM) / E.c."}, "[2]": {"experiment": "Hydrophobicity by C18 RP-HPLC elution", "format": "physicochemical", "details": "chromatographic, RP-HPLC C18 (Vydac), flow 2 ml/min, linear acetonitrile gradient 1%/min", "protocol": "OAKs were synthesized in-house (433 A Peptide Synthesizer; Applied Biosystems, Foster City, CA, USA) by the solid-phase method using 9-fluorenylmethyloxycarbonyl (Fmoc) active-ester chemistry on 4-methylbenzhydrylamine (MBHA) resin. OAKs were then deprotected and cleaved from the resin using trifluoroacetic acid:H2O (95:5) and purified to >95% chromatographic homogeneity by reverse phase high performance liquid chromatography (RP-HPLC) using C18 column (Vydac), a flow rate of 2 ml/min and a linear acetonitrile gradient of 1%/min (Alliance; Waters, Milford, MA, USA). Peaks identity was verified by mass-spectrometry (Xevo G2 Tof; Waters, Milford, MA, USA). Purified OAKs were then lyophilized and kept as dry powder at −20 °C."}, "GPB and GNB": {"test_system": "GPB and GNB", "experiment": "Effect observed at low concentrations, analog series", "format": "cell-based", "details": "summary of this and previous studies", "protocol": "Table 2 Modulating biophysical properties of a core sequence by conjugating an N-terminal acyl. | column: Effect observed at low concentrations (<3 µM)"}, "[3]": {"test_system": "S. mutans ATCC 35668 biofilm", "experiment": "Anti-biofilm activity on pre-formed biofilm", "format": "cell-based, Streptococcus mutans", "details": "≥0.5 mM, within one hour of exposure, inoculum 10^9 CFU/ml", "protocol": "Anti-biofilm activity was evaluated against established biofilms in 96-well plates as follows. 200 µl of mid-log-phase S. mutans 35668 at 5 × 10^5 CFU/ml in BHI containing 2% sucrose were placed in each well, and plates were incubated for 24 hr at 37 °C without shaking. Unattached cells were removed by decanting the plates and biofilms were washed three times with milliQ water. Solutions of the tested compounds were placed on the biofilms for up to 3 hr at 37 °C without shaking. Plates were decanted in 0.5 hr intervals and biofilms were washed three times with milliQ water to remove any compound residues. Biofilms were scraped from the bottom of the wells, suspended in BHI and sonicated for 5 min in a sonication bath, subjected to serial 10-fold dilutions in saline and plated on BHI agar for enumeration."}, "S. mutans ATCC 35668": {"test_system": "S. mutans ATCC 35668", "experiment": "Bactericidal kinetics (time-kill)", "format": "cell-based, Streptococcus mutans", "details": "time-kill kinetics in BHI", "protocol": "Bactericidal kinetics was assessed by incubating 5 × 10^5 CFU/ml of mid-log-phase bacteria with the OAK for 3 hr at 37 °C with shaking. Aliquots were taken at t = 0, 0.5, 1, 2 and 3 hr, subjected to serial 10-fold dilutions in saline (NaCl = 0.85%) and plated for enumeration after 24–48 hr incubation at 37 °C."}}, "note": "Read-outs that look alike come from different tables or passages of the source. Where a SMILES comes first, the peptide text is derived from it. [ ]: non-standard residue; d: D form. The star is where a group is joined. Palmitoyl = CCCCCCCCCCCCCCCC(=O)*; Lauroyl = CCCCCCCCCCCC(=O)*; 12Ado = NCCCCCCCCCCCC(=O)O; Decanoyl = CCCCCCCCCC(=O)*; Octanoyl = CCCCCCCC(=O)*", "data": [{"smiles": "CCCCCCCC(=O)N[C@@H](CCCCN)C(=O)N[C@@H](CCCCN)C(=O)NCCCCCCCCCCCC(=O)N[C@@H](CCCCN)C(N)=O", "note": "[C8KKc12K] (Octanoyl-KK[12Ado]K-NH2)", "values": [{"measurement": "binding affinity to LPS", "setting": "[1]", "value": "lower than that of C14KKc12K"}, {"measurement": "antibacterial activity", "setting": "bacteria", "value": "essentially inactive"}, {"measurement": "MIC", "setting": "S. mutans", "value": 50, "unit": "µM"}, {"measurement": "MIC E.c.", "setting": "E. coli", "value": ">50[40] µM"}, {"measurement": "H, hydrophobicity, defined as % acetonitrile eluent in C18 HPLC column", "setting": "[2]", "value": 41, "unit": "%"}, {"measurement": "Effect observed at low concentrations (<3 µM)", "setting": "GPB and GNB", "value": "Weak perturbations of GNB outer membrane (normal growth)"}]}, {"smiles": "CCCCCCCCCC(=O)N[C@@H](CCCCN)C(=O)N[C@@H](CCCCN)C(=O)NCCCCCCCCCCCC(=O)N[C@@H](CCCCN)C(N)=O", "note": "[C10KKc12K] (Decanoyl-KK[12Ado]K-NH2)", "values": [{"measurement": "binding affinity to LPS", "setting": "[1]", "value": "lower than that of C14KKc12K"}, {"measurement": "antibacterial activity", "setting": "bacteria", "value": "essentially inactive"}, {"measurement": "MIC", "setting": "S. mutans", "value": 6.25, "unit": "µM"}, {"measurement": "MIC E.c.", "setting": "E. coli", "value": ">50[40] µM"}, {"measurement": "H, hydrophobicity, defined as % acetonitrile eluent in C18 HPLC column", "setting": "[2]", "value": 46, "unit": "%"}, {"measurement": "Effect observed at low concentrations (<3 µM)", "setting": "GPB and GNB", "value": "Weak growth inhibition of some GPB and transient membrane damages including partial depolarization of CM (slight delay in GNB growth)"}]}, {"smiles": "CCCCCCCCCCCC(=O)N[C@@H](CCCCN)C(=O)N[C@@H](CCCCN)C(=O)NCCCCCCCCCCCC(=O)N[C@@H](CCCCN)C(N)=O", "note": "[C12KKc12K] (Lauroyl-KK[12Ado]K-NH2)", "values": [{"measurement": "binding affinity to LPS", "setting": "[1]", "value": "lower than that of C14KKc12K"}, {"measurement": "MIC", "setting": "S. mutans", "value": 1.56, "unit": "µM"}, {"measurement": "MIC E.c.", "setting": "E. coli", "value": "16[40] µM"}, {"measurement": "H, hydrophobicity, defined as % acetonitrile eluent in C18 HPLC column", "setting": "[2]", "value": 51, "unit": "%"}, {"measurement": "Effect observed at low concentrations (<3 µM)", "setting": "GPB and GNB", "value": "Impairing membrane damages leading to a bacteriostatic mode of action in GPB; OM permeabilization & delayed growth in GNB"}]}, {"smiles": "CCCCCCCCCCCCCCCC(=O)N[C@@H](CCCCN)C(=O)N[C@@H](CCCCN)C(=O)NCCCCCCCCCCCC(=O)N[C@@H](CCCCN)C(N)=O", "note": "[C16KKc12K] (Palmitoyl-KK[12Ado]K-NH2)", "values": [{"measurement": "MIC", "setting": "S. mutans", "value": 1.56, "unit": "µM"}, {"measurement": "MIC E.c.", "setting": "E. coli", "value": "25[24] µM"}, {"measurement": "H, hydrophobicity, defined as % acetonitrile eluent in C18 HPLC column", "setting": "[2]", "value": 62, "unit": "%"}, {"measurement": "Effect observed at low concentrations (<3 µM)", "setting": "GPB and GNB", "value": "Trend reversal (reduced potency) due to excess hydrophobicity as self-assembly approaches the critical aggregation concentration"}]}, {"smiles": "[H]/N=C(\\N/C(=N/[H])NCCCCCCNC(=N)NC(=N)Nc1ccc(Cl)cc1)Nc1ccc(Cl)cc1", "note": "[CHX, chlorhexidine, reference compound]", "values": [{"measurement": "killing of the initial inoculum in preformed biofilm", "setting": "[3]", "value": "> 99", "unit": "%"}, {"measurement": "higher potency (MIC) than C14KKc12K", "setting": "S. mutans; MIC of CHX versus C14KKc12K on S. mutans", "value": "~3", "unit": "fold"}, {"measurement": "MIC", "setting": "S. mutans; Streptococcus mutans, microdilution, BHI, 18–24 hr, 37 °C", "value": 0.3, "unit": "µM"}, {"measurement": "multiples of MIC at which bactericidal", "setting": "S. mutans ATCC 35668", "value": "40 multiples of its MIC"}]}, {"smiles": "NCCCC[C@H](NC(=O)CCCCCCCCCCCNC(=O)[C@H](CCCCN)NC(=O)[C@@H](N)CCCCN)C(N)=O", "note": "[H-KKc12K-NH2] (H-KK[12Ado]K-NH2)", "values": [{"measurement": "antibacterial activity", "setting": "bacteria", "value": "inactive"}, {"measurement": "MIC", "setting": "S. mutans", "value": ">50", "unit": "µM"}, {"measurement": "MIC E.c.", "setting": "E. coli", "value": ">50[40] µM"}, {"measurement": "H, hydrophobicity, defined as % acetonitrile eluent in C18 HPLC column", "setting": "[2]", "value": 27, "unit": "%"}, {"measurement": "Effect observed at low concentrations (<3 µM)", "setting": "GPB and GNB", "value": "Not observed (normal growth)"}]}]}
